Calls of active or inactive are those of the source.
What was measured:
Assay type in all cases: functional, cell-based
HepG2 [1] = assay: Effect on HCV-NS5B degradation in human HepG2 cells transfected with HCV sub-replicon at 10 uM pretreated with proteosome inhibitor MG132 for 12 hrs followed by compound addition and measured after 24 hrs by western blot analysis
HepG2 [2] = assay: Induction of autophagy in human HepG2 cells transfected with HCV subgenomic replicon assessed as HCV-NS5B/LAMP2 combination at 10 uM incubated for 24 hrs in presence of anti-LAMP2 antibodies by co-immunoprecipitation assay
HepG2 [3] = assay: Induction of autophagy in human HepG2 cells transfected with HCV subgenomic replicon assessed as HCV-CORE/LAMP2 combination at 10 uM incubated for 24 hrs in presence of anti-LAMP2 antibodies by co-immunoprecipitation assay
HepG2 [4] = assay: Induction of autophagy in human HepG2 cells transfected with HCV subgenomic replicon assessed as HCV-CORE/ATG10/ATG10S combination at 10 uM incubated for 24 hrs in presence of anti-LAMP2 antibodies by co-immunoprecipitation assay
HepG2 [5] = assay: Downregulation of HCV-CORE in human HepG2 cells co-transfected with HCV-subreplicon and ATG10-misMO upto 10 uM incubated for 24 hrs by western blot analysis
HepG2 [6] = assay: Downregulation of HIV-RT in human HepG2 cells co-transfected with HIV-RT and ATG10-misMO upto 10 uM incubated for 24 hrs by western blot analysis
HepG2 [7] = assay: Downregulation of HCV-CORE in human HepG2 cells transfected with HCV-subreplicon upto 10 uM incubated for 24 hrs by western blot analysis
HepG2 [8] = assay: Upregulation of endogenous ATG10S activated co-localisation of HIV-RT with LC3B in human HepG2 cells co-transfected with HIV-RT and ATG10-sMO by cellular immunofluorescence assay
HepG2 [9] = assay: Upregulation of endogenous ATG10S activated co-localisation of ZIKV-NS5 with LC3B in human HepG2 cells co-transfected with ZIKV-NS5 and ATG10-misMO by cellular immunofluorescence assay
HepG2 [10] = assay: Upregulation of endogenous ATG10S activated co-localisation of HBx with LC3B in human HepG2 cells co-transfected with HBx and ATG10-misMO by cellular immunofluorescence assay
HepG2 [11] = assay: Upregulation of endogenous ATG10S activated co-localisation of HBx with LAMP2 in human HepG2 cells co-transfected with HBx and ATG10-sMO by cellular immunofluorescence assay
HepG2 [12] = assay: Upregulation of endogenous ATG10S activated co-localisation of ZIKV-NS5 with LAMP2 in human HepG2 cells co-transfected with ZIKV-NS5 and ATG10-sMO by cellular immunofluorescence assay
HepG2 [13] = assay: Upregulation of IL28A mRNA expression level in human HepG2 cells transfected with HIV-RT upto 10 uM by qRT-PCR analysis; conditions: DDE = dose-dependent effect
HepG2 [14] = assay: Upregulation of LC3B in human HepG2 cells transfected with HCV sub-replicon and gene knockdown by IL28A morpholinos at 10 uM incubated for 24 hrs by western blot analysis
HepG2 [15] = assay: Induction of autophagy in human HepG2 cells co-transfected with ATG10 or ATG10S assessed as increase in ATG10/ATG10S protein level upto 10 uM and measured after 6 hrs by western blot analysis; conditions: DDE = dose-dependent effect
HepG2 [16] = assay: Induction of autophagy in human HepG2 cells transfected with HBx assessed as increase in HBx-P62 interaction level at 10 uM incubated for 24 hrs in presence of anti-Flag antibodies by co-immunoprecipitation assay
HepG2 [17] = assay: Induction of autophagy in human HepG2 cells transfected with HBx assessed as increase in HBx-LAMP2 interaction level at 10 uM incubated for 24 hrs in presence of anti-Flag antibodies by co-immunoprecipitation assay
HepG2 [18] = assay: Induction of autophagy in human HepG2 cells transfected with HIV-RT assessed as increase in HIV-RT-LC3B interaction level at 10 uM incubated for 24 hrs in presence of anti-Flag antibodies by co-immunoprecipitation assay
HepG2 [19] = assay: Induction of autophagy in human HepG2 cells transfected with HCV subgenomic replicon assessed as HCV-NS5B/LAMP2 combination at 10 uM incubated for 24 hrs in presence of anti-LC3B antibodies by co-immunoprecipitation assay
HepG2 [20] = assay: Upregulation of ATG10/ATG10S mRNA level in human HepG2 cells transfected with ZIKV-NS5 upto 10 uM by RT-PCR analysis; conditions: DDE = dose-dependent effect
HepG2 [21] = assay: Upregulation of HCV-NS5B in human HepG2 cells transfected with HCV sub-replicon and gene knockdown by IL28A morpholinos at 10 uM incubated for 24 hrs by western blot analysis
HepG2 [22] = assay: Upregulation of LC3B in human HepG2 cells transfected with ZIKV-NS5 and gene knockdown by IL28A morpholinos at 10 uM incubated for 24 hrs by western blot analysis

Measured: Activity

CC[C@@H](O)c1nc(C)cc2c1C(=O)c1cc(=O)c3c(c(O)c1-2)O[C@@H]1O[C@H](C)[C@@H](OC)[C@@H](O)[C@]31O
active: HepG2 [1] | HepG2 [2] | HepG2 [3] | HepG2 [4] | HepG2 [5] | HepG2 [6] | HepG2 [7] | HepG2 [8] | HepG2 [9] | HepG2 [10] | HepG2 [11] | HepG2 [12] | HepG2 [13] Dde | HepG2 [14] | HepG2 [15] Dde | HepG2 [16] | HepG2 [17] | HepG2 [18] | HepG2 [19] | HepG2 [20] Dde | HepG2 [21] | HepG2 [22]

Source: ChEMBL document CHEMBL5120764, “Isarubrolone C Promotes Autophagic Degradation of Virus Proteins via Activating ATG10S in HepG2 Cells” (J Nat Prod, 2022)
